One series can be described thus: in vivo. Conditions: plasma.
The conditions of series [1]: 120 minutes after administration.

For the compound `N[C@@H](Cc1ccc(O)c(O)c1)C(=O)O` [L-Dopa, Levodopa], the concentration at 2 min amounted to 5000 ng/mL in the series “in vivo” (inhaled) and 1000 ng/mL in the series “in vivo” (po). Also, in series [1], the “plasma level, methods of the invention compared to oral administration” value is given as “twice as high”.

The values above are taken from patent publication US9155699B2, “Pulmonary delivery for levodopa” (Civitas Therapeutics, Inc., priority 2002, dated 2015).
